According to the NIST ThermoML archive (doi:10.1016/j.jct.2010.11.007):
Numbers after ± are expanded uncertainties.

Assay: xn = mol fraction of the nth substance listed
Conditions: Liquid; for speed of sound: Sing-around technique in a fixed-path interferometer; for mass density: Vibrating tube method

C=CC(C)(O)CCC=C(C)C (stereo unspecified) [3,7-dimethyl-1,6-octadien-3-ol] + CCCO
Conditions	mass density, 283.15 K [kg/m3]	mass density, 298.15 K [kg/m3]	mass density, 313.15 K [kg/m3]	mass density, 328.15 K [kg/m3]	speed of sound, 283.15 K [m/s]	speed of sound, 298.15 K [m/s]	speed of sound, 313.15 K [m/s]	speed of sound, 328.15 K [m/s]
101 kPa, x1 = 0.0533	–	–	–	–	–	–	1171.9 ± 0.7	1121 ± 0.7
101 kPa, x1 = 0.0551	819.82 ± 0.13	807.92 ± 0.14	795.75 ± 0.14	783.12 ± 0.15	1274.4 ± 0.8	1222.4 ± 0.7	–	–
101 kPa, x1 = 0.1051	826.23 ± 0.13	814.32 ± 0.14	802.06 ± 0.14	789.69 ± 0.15	1288.6 ± 0.8	1236 ± 0.8	1184.2 ± 0.8	1132.6 ± 0.7
101 kPa, x1 = 0.2014	836.56 ± 0.14	824.59 ± 0.15	812.16 ± 0.15	799.39 ± 0.16	1308.8 ± 0.9	1255.7 ± 0.9	1203.6 ± 0.8	1151 ± 0.8
101 kPa, x1 = 0.3032	–	832.73 ± 0.17	–	807.41 ± 0.17	–	–	–	–
101 kPa, x1 = 0.3049	845.01 ± 0.16	–	820.4 ± 0.17	–	1326.2 ± 1	1272.1 ± 1	1218 ± 1	1165.3 ± 1
101 kPa, x1 = 0.3869	850.24 ± 0.19	838.05 ± 0.19	825.47 ± 0.19	–	–	1281.3 ± 1.1	1227.7 ± 1.1	–
101 kPa, x1 = 0.3946	–	–	–	–	1336.7 ± 1.1	–	–	–
101 kPa, x1 = 0.3947	–	–	–	812.99 ± 0.2	–	–	–	1174.8 ± 1.1
101 kPa, x1 = 0.4923	855.58 ± 0.23	843.28 ± 0.23	830.75 ± 0.23	–	–	–	–	–
101 kPa, x1 = 0.4925	–	–	–	817.72 ± 0.24	–	–	–	–
101 kPa, x1 = 0.4951	–	–	–	–	1345.4 ± 1.2	1290.3 ± 1.2	1236.5 ± 1.2	1183.1 ± 1.2
101 kPa, x1 = 0.5905	859.44 ± 0.29	–	834.56 ± 0.29	–	–	–	–	–
101 kPa, x1 = 0.5917	–	847.16 ± 0.29	–	821.54 ± 0.29	1350.8 ± 1.4	1295.7 ± 1.4	1242.2 ± 1.4	1189.7 ± 1.4
101 kPa, x1 = 0.6818	–	–	–	824.42 ± 0.34	–	–	–	–
101 kPa, x1 = 0.6847	–	–	–	–	1355.2 ± 1.5	1301 ± 1.5	1247.2 ± 1.5	1193.6 ± 1.5
101 kPa, x1 = 0.6895	862.58 ± 0.35	–	837.72 ± 0.35	–	–	–	–	–
101 kPa, x1 = 0.69	–	850.31 ± 0.35	–	–	–	–	–	–
101 kPa, x1 = 0.7653	–	852.26 ± 0.41	839.66 ± 0.4	826.67 ± 0.4	–	–	1250.9 ± 1.6	1197 ± 1.6
101 kPa, x1 = 0.7685	864.67 ± 0.41	–	–	–	1359 ± 1.7	1304.8 ± 1.7	–	–
101 kPa, x1 = 0.8735	866.97 ± 0.51	854.67 ± 0.5	842.05 ± 0.49	829.08 ± 0.48	1364.2 ± 1.8	1309.4 ± 1.8	1255.2 ± 1.8	1201.2 ± 1.8
101 kPa, x1 = 0.9296	868.12 ± 0.56	855.79 ± 0.55	843.14 ± 0.54	830.17 ± 0.53	1366.3 ± 1.9	1311.8 ± 1.9	1258 ± 1.9	1204.4 ± 1.9
101 kPa, x1 = 1	869.39 ± 0.63	857 ± 0.62	844.29 ± 0.61	831.31 ± 0.6	1370.6 ± 2	1315.1 ± 2	1260.8 ± 2	1207.6 ± 2
20000 kPa, x1 = 0.0582	833.8 ± 1.1	822.8 ± 1.1	811.8 ± 1.1	800.4 ± 1.1	–	–	–	–
20000 kPa, x1 = 0.1037	839.4 ± 1.1	828.4 ± 1.1	817.4 ± 1.1	806 ± 1.1	–	–	–	–
20000 kPa, x1 = 0.1803	847.1 ± 1	836.2 ± 1	825.1 ± 1	813.6 ± 1.1	–	–	–	–
20000 kPa, x1 = 0.3087	857.5 ± 1	846.3 ± 1	834.9 ± 1	823.4 ± 1.1	–	–	–	–
20000 kPa, x1 = 0.4104	863.5 ± 1	852.3 ± 1	840.7 ± 1.1	829.1 ± 1.1	–	–	–	–
20000 kPa, x1 = 0.4994	867.6 ± 1.1	856.4 ± 1.1	844.9 ± 1.1	833.2 ± 1.1	–	–	–	–
20000 kPa, x1 = 0.5939	871.3 ± 1.1	860 ± 1.1	848.4 ± 1.1	836.7 ± 1.1	–	–	–	–
20000 kPa, x1 = 0.7117	875.1 ± 1.1	863.7 ± 1.1	852.2 ± 1.1	840.5 ± 1.1	–	–	–	–
20000 kPa, x1 = 0.7777	876.8 ± 1.1	865.5 ± 1.1	853.9 ± 1.1	842.2 ± 1.1	–	–	–	–
20000 kPa, x1 = 0.8566	878.5 ± 1.1	867 ± 1.1	855.5 ± 1.1	843.8 ± 1.1	–	–	–	–
20000 kPa, x1 = 0.9405	880.2 ± 1.2	868.8 ± 1.2	857.3 ± 1.2	845.6 ± 1.2	–	–	–	–
20000 kPa, x1 = 1	881.2 ± 1.2	869.7 ± 1.2	858.1 ± 1.2	846.4 ± 1.2	–	–	–	–
25000 kPa, x1 = 0.0582	837 ± 1.1	826.1 ± 1.1	815.4 ± 1.1	804.3 ± 1.1	–	–	–	–
25000 kPa, x1 = 0.1037	842.5 ± 1.1	831.7 ± 1.1	820.9 ± 1.1	809.7 ± 1.1	–	–	–	–
25000 kPa, x1 = 0.1803	850.1 ± 1	839.3 ± 1	828.4 ± 1.1	817.1 ± 1.1	–	–	–	–
25000 kPa, x1 = 0.3087	860.5 ± 1	849.4 ± 1.1	838.3 ± 1.1	826.9 ± 1.1	–	–	–	–
25000 kPa, x1 = 0.4104	866.4 ± 1.1	855.4 ± 1.1	844.1 ± 1.1	832.7 ± 1.1	–	–	–	–
25000 kPa, x1 = 0.4994	870.5 ± 1.1	859.5 ± 1.1	848.1 ± 1.1	836.7 ± 1.1	–	–	–	–
25000 kPa, x1 = 0.5939	874.2 ± 1.1	863 ± 1.1	851.7 ± 1.1	840.2 ± 1.1	–	–	–	–
25000 kPa, x1 = 0.7117	877.9 ± 1.1	866.7 ± 1.1	855.4 ± 1.1	843.9 ± 1.1	–	–	–	–
25000 kPa, x1 = 0.7777	879.6 ± 1.1	868.5 ± 1.1	857.1 ± 1.1	845.6 ± 1.1	–	–	–	–
25000 kPa, x1 = 0.8566	881.3 ± 1.1	870 ± 1.2	858.7 ± 1.2	847.2 ± 1.2	–	–	–	–
25000 kPa, x1 = 0.9405	883 ± 1.2	871.8 ± 1.2	860.4 ± 1.2	848.9 ± 1.2	–	–	–	–
25000 kPa, x1 = 1	884 ± 1.2	872.7 ± 1.2	861.3 ± 1.2	849.8 ± 1.2	–	–	–	–
30000 kPa, x1 = 0.0582	839.8 ± 1.1	829.3 ± 1.1	818.7 ± 1.1	807.8 ± 1.1	–	–	–	–
30000 kPa, x1 = 0.1037	845.3 ± 1.1	834.9 ± 1.1	824.3 ± 1.1	813.3 ± 1.1	–	–	–	–
30000 kPa, x1 = 0.1803	852.9 ± 1.1	842.5 ± 1.1	831.7 ± 1.1	820.7 ± 1.1	–	–	–	–
30000 kPa, x1 = 0.3087	863.2 ± 1.1	852.5 ± 1.1	841.5 ± 1.1	830.4 ± 1.1	–	–	–	–
30000 kPa, x1 = 0.4104	869.1 ± 1.1	858.4 ± 1.1	847.2 ± 1.1	836 ± 1.1	–	–	–	–
30000 kPa, x1 = 0.4994	873.2 ± 1.1	862.4 ± 1.1	851.2 ± 1.1	840 ± 1.1	–	–	–	–
30000 kPa, x1 = 0.5939	876.8 ± 1.1	866 ± 1.1	854.8 ± 1.1	843.6 ± 1.1	–	–	–	–
30000 kPa, x1 = 0.7117	880.6 ± 1.1	869.7 ± 1.1	858.5 ± 1.1	847.2 ± 1.1	–	–	–	–
30000 kPa, x1 = 0.7777	882.2 ± 1.1	871.4 ± 1.1	860.2 ± 1.1	848.9 ± 1.1	–	–	–	–
30000 kPa, x1 = 0.8566	883.9 ± 1.2	872.9 ± 1.2	861.7 ± 1.2	850.4 ± 1.2	–	–	–	–
30000 kPa, x1 = 0.9405	885.6 ± 1.2	874.7 ± 1.2	863.4 ± 1.2	852.1 ± 1.2	–	–	–	–
30000 kPa, x1 = 1	886.6 ± 1.2	875.6 ± 1.2	864.3 ± 1.2	853 ± 1.2	–	–	–	–
35000 kPa, x1 = 0.0582	842.8 ± 1.1	832.4 ± 1.1	822.1 ± 1.1	811.3 ± 1.1	–	–	–	–
35000 kPa, x1 = 0.1037	848.3 ± 1.1	837.9 ± 1.1	827.5 ± 1.1	816.7 ± 1.1	–	–	–	–
35000 kPa, x1 = 0.1803	855.7 ± 1.1	845.4 ± 1.1	834.8 ± 1.1	823.9 ± 1.1	–	–	–	–
35000 kPa, x1 = 0.3087	866 ± 1.1	855.4 ± 1.1	844.6 ± 1.1	833.6 ± 1.1	–	–	–	–
35000 kPa, x1 = 0.4104	871.9 ± 1.1	861.2 ± 1.1	850.4 ± 1.1	839.3 ± 1.1	–	–	–	–
35000 kPa, x1 = 0.4994	875.9 ± 1.1	865.2 ± 1.1	854.3 ± 1.1	843.2 ± 1.1	–	–	–	–
35000 kPa, x1 = 0.5939	879.4 ± 1.1	868.7 ± 1.1	857.8 ± 1.1	846.7 ± 1.1	–	–	–	–
35000 kPa, x1 = 0.7117	883.2 ± 1.1	872.4 ± 1.1	861.5 ± 1.1	850.4 ± 1.1	–	–	–	–
35000 kPa, x1 = 0.7777	884.9 ± 1.1	874.1 ± 1.1	863.2 ± 1.1	852.1 ± 1.2	–	–	–	–
35000 kPa, x1 = 0.8566	886.5 ± 1.2	875.6 ± 1.2	864.7 ± 1.2	853.6 ± 1.2	–	–	–	–
35000 kPa, x1 = 0.9405	888.2 ± 1.2	877.3 ± 1.2	866.4 ± 1.2	855.2 ± 1.2	–	–	–	–
35000 kPa, x1 = 1	889.2 ± 1.2	878.3 ± 1.2	867.3 ± 1.2	856.2 ± 1.3	–	–	–	–
40000 kPa, x1 = 0.0582	845.5 ± 1.1	835.4 ± 1.1	825.1 ± 1.1	814.7 ± 1.1	–	–	–	–
40000 kPa, x1 = 0.1037	851.1 ± 1.1	840.9 ± 1.1	830.7 ± 1.1	820.1 ± 1.1	–	–	–	–
40000 kPa, x1 = 0.1803	858.4 ± 1.1	848.3 ± 1.1	837.9 ± 1.1	827.2 ± 1.1	–	–	–	–
40000 kPa, x1 = 0.3087	868.6 ± 1.1	858.3 ± 1.1	847.7 ± 1.1	836.9 ± 1.1	–	–	–	–
40000 kPa, x1 = 0.4104	874.6 ± 1.1	864 ± 1.1	853.3 ± 1.1	842.4 ± 1.1	–	–	–	–
40000 kPa, x1 = 0.4994	878.5 ± 1.1	867.9 ± 1.1	857.3 ± 1.1	846.4 ± 1.1	–	–	–	–
40000 kPa, x1 = 0.5939	882.1 ± 1.1	871.5 ± 1.1	860.7 ± 1.1	849.8 ± 1.1	–	–	–	–
40000 kPa, x1 = 0.7117	885.9 ± 1.1	875.1 ± 1.1	864.4 ± 1.1	853.5 ± 1.1	–	–	–	–
40000 kPa, x1 = 0.7777	887.5 ± 1.1	876.8 ± 1.2	866.1 ± 1.2	855.1 ± 1.2	–	–	–	–
40000 kPa, x1 = 0.8566	889.1 ± 1.2	878.3 ± 1.2	867.6 ± 1.2	856.6 ± 1.2	–	–	–	–
40000 kPa, x1 = 0.9405	890.8 ± 1.2	880 ± 1.2	869.2 ± 1.2	858.2 ± 1.2	–	–	–	–
40000 kPa, x1 = 1	891.8 ± 1.3	881 ± 1.3	870.2 ± 1.3	859.2 ± 1.3	–	–	–	–
